Patent US20230381163A1, “DABIGATRAN COMPOSITIONS AND METHODS OF TREATING AGE-RELATED MACULAR DEGENERATION” (The United States Government As Represented By The …, priority 2022, published 2023)
Entries after “also recorded” stand apart in the source; their conditions may differ.

Experiments:
thrombin [1] = target: thrombin (Homo sapiens, UniProt P00734); assay: Thrombin activity in cell-free system; conditions: 10 μM, thrombin 10-500 U/mL
Method: Thrombin activity in cell-free system. To measure the level of active thrombin in cell-free system, known concentrations of thrombin were prepared in 100 μl of assay buffer (50 mM Tris, 100 mM NaCl, and 0.01% BSA; pH 7.5), subsequently 50 μl of thrombin substrate was added and incubated at 37° C. Fluorescence was measured at 405 nm using the Biotek Synergy HT Microplate Reader and thrombin activity was determined by extrapolation from a thrombin standard curve. Effects of inhibitors were tested by pre-incubating the inhibitors with thrombin, before substrate incorporation.

thrombin [2] = target: thrombin (Mus musculus, UniProt P19221)
Method: Thrombin activity assay. Thrombin activity was measured according to a methodology described by Ludwicka with modifications (Ohba, T., et al. (1994). Am J Respir Cell Mol Biol 10, 405-412). Thrombin specific peptide Boc-Val-Pro-Arg-7-amido-4-methylcoumarin hydrochloride (Sigma-Aldrich) was reconstituted in molecular grade ice-cold H2O at a concentration of 0.5 mg/ml and used as substrate.
It was test whether dabigatran would alter the course of angiogenesis or repair, by feeding animals with dabigatran chow during the two different phases.

complement component C3 = assay: Thrombin-mediated C3 cleavage in apical supernatants of ARPE-19 cells (western blot); type: cell-based, human; conditions: 10 μM
Method: Second, it was tested whether thrombin can cleave complement components (Huber-Lang, M., et al. (2006). Nat Med 12, 682-687; and Krisinger, M. J., et al. (2012). Blood 120, 1717-1725), specifically C3 and C5, producing cleavage products potentially different from those produced by classical convertases. To test the effects of thrombin on complement cleavage, the apical supernatants of treated ARPE-19 cell monolayers were analyzed by western blotting. Cleavage of C3α was evaluated using an antibody specific for C3a (FIG. 5A, left-hand blot). The C3a antibody detected C3, the C3α band as well as other fragments containing C3a. Thrombin caused a concentration dependent cleavage of complement component C3 (˜190 kDa), caused reduction of the 120 kDa C3a band and generation of a new 80 kDa fragment. Fragments at 32 kDa and 9-10 kDa with higher doses of thrombin treatment (FIG. 5A, 10 U/mL) were also observed. The 9-10 kDa band ran at the same molecular weight as purified C3a (FIG. 11). The reduction of the 120 kDa fragment was correlated with the generation of the 80 kDa fragment (FIG. 5B). The loss of the 120 kDa fragment was prevented by either dabigatran (10 μM) or the C3 inhibitor compstatin (100 μM), which inhibits complement both on cell membranes as well as in fluid phase, but not by TT30 (10 μM), which is an inhibitor that prevents membrane-bound AP activation (FIG. 5C). […]

[3] = test system: CTGF expression in ARPE-19 cells; assay: Thrombin-induced CTGF expression in ARPE-19 cell lysates (western blot); conditions: dabigatran 10 μM, thrombin 1 U/mL
Method: Cell culture experiments: Cells. Human ARPE-19 (ATCC® CRL-2302™; American Type Culture Collection, Manassas VA) cells were cultured in DMEM cell culture media (Gibco/ThermoFisher Scientific) containing high glucose DMEM with D-glucose (4.5 g/L), L-glutamine, sodium pyruvate (110 mg/L), Penicillin and Streptomycin (1×) and 10% of FBS. Cells (<passage 10 after purchase) were expanded in T75 cell culture flasks at 37° C., in the presence of 5% CO2. Confluent cells were trypsinized with 0.05% trypsin (Gibco), and equal numbers of cells were seeded on 6-well transwell filters/plate (Costar). […] Integrity of the cell monolayer was assessed by Transepithelial resistance (TER) measurements using an EVOM volt-ohmmeter (World Precision Instruments) four weeks after plating. RPE monolayers with a stable TER repeatedly measured as ˜40-45 S2 cm 2 were used for these experiments.
Treatments. Prior to each experiment, the cell monolayer was washed with serum-free medium (SFM) and maintained in SFM for 24 hours. […] Treatments were performed on the apical side of the transwell membrane, which represents the retinal side of the RPE in vivo. Some of the cells were treated with thrombin (EMD Millipore Corp), complement components C3a, C5a (Complement Technology), thrombin agonist PAR1-AP (Sigma-Aldrich; amino acid sequence SFLLRN (SEQ ID NO: 1)), thrombin inhibitor dabigatran etexilate (Sigma-Aldrich), C3 inhibitor compstatin (R&D Systems), AP inhibitor TT30 (Alexion Therapeutics), a protease inhibitor alpha1-antitrypsin (Sigma-Aldrich), and the thrombin receptor proteinase activated receptor 1 inhibitor SCH 79797 (Sigma-Aldrich). Treatments were performed 60 min prior to the addition of thrombin. Cell culture supernatant and lysate were collected after specific time points or after 24 hrs of treatment and stored at −20° C. for later use.
Western blotting. […] Cell lysates were collected in RIPA cell lysis buffer containing 150 mM NaCl, 1.0% IGEPAL® CA-630, 0.5% sodium deoxycholate, 0.1% SDS, 50 mM Tris (pH 8.0) (Sigma-Aldrich) in presence of 1×protease inhibitor (Sigma-Aldrich). Equal amount of each samples were loaded on 4-20% Criterion™ TGX™ precast gels (Bio-Rad Laboratories, Inc.) (Annamalai, B., et al. (2020). Invest Ophthalmol Vis Sci 61, 45). Proteins were transferred to a nitrocellulose membrane and incubated in primary antibody followed by appropriate secondary antibodies coupled to peroxidase, followed by band development and detection using Clarity™ Western ECL blotting substrate (Bio-Rad Laboratories, Inc.) and chemiluminescent detection. Protein bands were scanned and densities quantified using ImageJ software. The following antibodies were used: C3a (1:1000; Complement Technology), C5a (1:1000; Abcam), connective tissue growth factor/CTGF (1:1000; Abcam), C3d anti-C3d (clone 11, 1:1000; generation of the antibody is described in (Thurman, J. M., et al. (2013). J Clin Invest 123, 2218-2230)), VEGF (1:1000, Santa Cruz Biotechnology, Inc.), β-actin (1:2000; Cell Signaling Technology) and concentrations selected based on the data sheet recommendations.
ARPE-19 cell monolayers were treated with thrombin (0.5-10 U/ml) and cell lysates were collected and analyzed for CTGF levels at 4 hrs post treatment by western blotting.

VEGF = VEGF levels in RPE/choroid of CNV mice (western blot); type: in vivo, mouse
Source text: (§1) Pathway analysis in CNV. Based on the results in cells, an analysis in animals followed, focusing on VEGF levels in the RPE/choroid, complemented by CTGF analysis and complement activation (C3d production and binding). RPE/choroid samples were collected at the end of the angiogenesis experiment (day 6) and after the final OCT analysis in the repair experiment (day 23) and compared to naive controls (no CNV and no dabigatran treatment).

[4] = test system: C3α breakdown products C3d/C3dg and C3α′1; assay: Complement activation (C3d) in RPE/choroid of CNV mice (western blot); type: in vivo, mouse
Source text: as §1
Unexpectedly, and in contrast to the cell data (FIG. 4), C3d deposition was not reduced by dabigatran.

[5] = test system: choroidal neovascularization (CNV) lesions; assay: Laser-induced CNV lesion size by OCT in mice fed dabigatran chow; type: in vivo, C57BL/6J mice
Source text: Mouse model of choroidal neovascularization (CNV): Choroidal neovascularization. C57BL/6J mice (males and females) from the same colony, to guarantee identical microbiome ([…] al., 2016), were recruited to the study at 3 months of age. Argon laser photocoagulation (532 nm, 100 μm spot size, 0.1 s duration, 100 mW) was used to generate 4 laser spots around the optic nerve of each eye (Rohrer et al., 2009), utilizing bubble formation at the site of the laser burn as the inclusion criteria for successful Bruch's membrane rupture (Nozaki et al., 2006). Dabigatran exposure. Mice were fed standard chow fortified with dabigatran etexilate (10 […] of chow; Boehringer Ingelheim). Mice were either fed dabigatran chow during the angiogenesis period of CNV (starting 2 days prior to CNV induction through day 6 when the tissues were collected), or during the wound healing period (starting after the OCT analysis to ensure CNV growth on day 5 through day 23). Optical Coherence Tomography (OCT) analysis. OCT was used to quantify CNV lesion size on day 5 post laser treatment (Schnabolk, G., et al. (2014). Exp Eye Res 129, 18-23; Schnabolk, G., et al. (2015). Invest Ophthalmol Vis Sci; and Coughlin, B., et al. (2016). Sci Rep 6, 23794), or in weekly intervals to document recovery from fibrosis (Parsons, N., et al. (2019). Mol Immunol 108, 8-12) using an SD-OCT Bioptigen® Spectral Domain Ophthalmic Imaging System (Bioptigen Inc., Durham NC). Mice were anesthetized prior to imaging, eyes kept hydrated with normal saline, and body temperature was carefully monitored to prevent anesthesia-induced cataracts. The methods for imaging and analysis have been described (Schnabolk, G., et al. (2014). Exp Eye Res 129, 18-23; Schnabolk, G., et al. (2015). Invest Ophthalmol Vis Sci; Coughlin, B., et al. (2016). Sci Rep 6, 23794; and Parsons, N., et al. (2019). Mol Immunol 108, 8-). Based on the size of the individual pixels (1.6×1.6 μm), the lesion sizes were calculated.

[6] = dabigatran chow, ˜10 mg/kg bodyweight per day; cited from earlier work

## CCCCCCOC(=O)NC(=N)c1ccc(NCc2nc3cc(C(=O)N(CCC(=O)OCC)c4ccccn4)ccc3n2C)cc1
Thrombin [1]
  effect on thrombin enzyme activity: significantly reduce
Thrombin [2]; mice on dabigatran chow vs control mice, P=0.04
  reduction of thrombin activity in retina/RPE/choroid tissues: ~10%
Thrombin [2]; mice on dabigatran chow ˜10 mg/kg per day vs control mice, P=0.003
  reduction of thrombin activity in serum: ~35%
Thrombin [2]; mice on dabigatran chow, control: 100±3.1
  thrombin activity in retina/RPE/choroid tissues: 91.1±2.6
Thrombin [2]; mice on dabigatran chow, control: 100±7.6
  thrombin activity in serum: 65.4±5.1
Complement component C3
  effect on thrombin-mediated loss of the 120 kDa C3 fragment: prevented
[3]
  reduction of thrombin-induced CTGF expression: 3.2 fold
VEGF; 6-day time point, angiogenesis phase, P=0.9
  effect on VEGF levels in RPE/choroid: no effect
VEGF; 23-day time point, repair phase, P=0.001
  effect on VEGF levels in RPE/choroid: significantly reduced
[4]; CNV animals, repair phase
  effect on C3d deposition: not reduced
[4]; end of repair period (23 days), P<0.05
  effect on C3d/C3dg and C3α′1 levels in RPE/choroid: further elevated
[5]; dabigatran from 2 days prior to CNV induction through angiogenesis phase, OCT day 5, insignificant, P=0.2
  reduction of CNV lesion sizes: ~15%
[5]; dabigatran from day 5 through repair phase, day 23, P<0.02
  CNV lesion size at final time point: significantly smaller lesions
[5]; repair phase days 5-23, repeated measure ANOVA P<0.0001
  CNV lesion response over time (repair): significant effect of treatment; also recorded: acceleration of repair
[6]
  blood plasma concentration of dabigatran: 372 ± 30 ng/mL
  elongation of coagulation times: 3 fold
